Test results from patent publication US7608688B2, “HIV-1 protein associated with broadly reactive neutralizing antibody response” (The Henry M. Jackson Foundation for the Advancement of …, priority 1998, dated 2009).
In brackets after ≈: the same amount, converted by molar mass. Read-outs that look alike come from different tables or passages of the source. Bridge positions count the residues as written; N and C are the ends. Peptide text beside a SMILES is read from it.

Test: Solubility of V3 peptides
Type: physicochemical
Settings: for solubility: 10 percent DMSO in water, estimated by turbidity, read-out: solubility in 10 percent DMSO solution at pH=7.4
Method: To obtain cyclic peptides, solutions of the R2 and R2(313-4PM/HI, 325Q/D) V3 35-mers in dimethylsulfoxide (DMSO), 10 mg/ml, were diluted 1:10 in water at room temperature or 37° C. and the pH was adjusted to 8.5 with ammonium hydroxide. These solutions were aerated by bubbling air through the solutions for periods ≧1 hour. Following aeration, the pH was adjusted to 7.4 using hydrochloric acid. A portion of the R2 35-mer peptide precipitated during these procedures. To obtain an approximate quantitation of the amount of R2 V3 35-mer that remained in solution, the turbidity of the suspension was determined at 480 nm wavelength visible light using a spectrophotometer. The spectrophotometer was blanked with a solution of 10 percent DMSO in water, and a standard curve was produced using slurries of known amounts of the 35-mer peptide suspended in water. The amount of precipitate estimated by turbidity was subtracted from the amount of peptide added at the beginning of the preparation procedure to estimate the amount remaining in solution. […] Peptides were sterilized by passage through 0.22μ pore size filters prior to use.

Molecule: CC[C@H](C)[C@@H]1NC(=O)[C@H](CC(=O)O)NC(=O)CNC(=O)[C@H]([C@@H](C)CC)NC(=O)[C@H]([C@@H](C)CC)NC(=O)[C@H](CCC(N)=O)NC(=O)CNC(=O)[C@H]([C@@H](C)O)NC(=O)[C@H]([C@@H](C)O)NC(=O)[C@H](Cc2ccc(O)cc2)NC(=O)[C@H](Cc2ccccc2)NC(=O)[C@H](C)NC(=O)[C@H](CCCNC(=N)N)NC(=O)CNC(=O)[C@@H]2CCCN2C(=O)CNC(=O)[C@H](CCSC)NC(=O)[C@@H]2CCCN2C(=O)[C@H]([C@@H](C)CC)NC(=O)[C@H](CO)NC(=O)[C@H](CCCCN)NC(=O)[C@H](CCCNC(=N)N)NC(=O)[C@H]([C@@H](C)O)NC(=O)[C@H](CC(N)=O)NC(=O)[C@H](CC(N)=O)NC(=O)[C@H](CC(N)=O)NC(=O)[C@@H]2CCCN2C(=O)[C@H](CCCNC(=N)N)NC(=O)[C@H](CO)NC(=O)[C@@H](N)CSSC[C@@H](C(=O)O)NC(=O)[C@H](Cc2c[nH]cn2)NC(=O)[C@H](C)NC(=O)[C@H](CCC(N)=O)NC(=O)[C@H](CCCNC(=N)N)NC1=O [cyclic 35-mer R2 V3 peptide] (H-CSRPNNNTRKSIPMGPGRAFYTTGQIIGDIRQAHC-OH; disulfide 1-35; N-terminus and C-terminus assumed)
- solubility (pH 7.4, processed at 37° C.): 850 to 900 µg/mL (≈ 220 to 233 µM)
- solubility (pH 7.4, processed at room temperature): 300 to 350 µg/mL (≈ 77.7 to 90.7 µM)

Molecule: CSRPNNNTRKSIPMGPGRAFYTTGQIIGDIRQAHC (Human immunodeficiency virus type 1; R2 strain V3 domain) [R2 V3 35-mer]
- solubility in water (water): insoluble in water
